We go through 21 compounds from patent US10646488B2 (Araxes Pharma LLC, priority 2016, dated 2020).

The target of one test is T1, KRAS G12C 1-169, his-tagged protein, GDP-loaded (Homo sapiens, UniProt P01116, G12C).
T1 construct: KRAS G12C 1-169, his-tagged protein, GDP-loaded
The test can be described thus: Covalent binding (% modification) to KRAS G12C by mass spectrometry. Note: test concentration or dose not given here. The following applies: % modification at 10 min (footnote †).
Take `CC#CC(=O)N1C[C@H](C)N(c2nc(N3CC(N(C)C)C3)nc3c(F)c(-c4c(O)cccc4F)c(Cl)cc23)C[C@H]1C` [Compound 114, 1-((2R,5S)-4-(6-chloro-2-(3-(dimethylamino)azetidin-1-yl)-8-fluoro-7-(2-fluoro-6-hydroxyphenyl)quinazolin-4-yl)-2,5-dimethyl-piperazin-1-yl) but-2-yn-1-one]: the Binding % result was “+ (+ indicates binding activity greater than 0% and up to 50%)”.

Still in this test, the particulars now being: covalent binding to KRAS G12C after a ten minute incubation period.
Consider `C=CC(=O)N1[C@H](C)CN(c2nc(NC3CCN(C4CC4)CC3)nc3c(F)c(-c4c(O)cccc4F)c(Cl)cc23)C[C@@H]1C` [Compound 20, 1-((2R,6S)-4-(6-chloro-2-((1-cyclopropyl-piperidin-4-yl)amino)-8-fluoro-7-(2-fluoro-6-hydroxyphenyl)quinazolin-4-yl)-2,6-dimethyl-piperazin-1-yl) prop-2-en-1-one], for which the Binding % entry is listed as “++ (++ indicates binding activity from 50 to 90%)”.

In the case of `C=CC(=O)N1CCN(c2nc(N3CC(N(C)C)C3)nc3c(F)c(-c4c(O)cccc4F)c(Cl)cc23)C[C@H]1C` (atropisomer, axis not shown) [Compound 61, 1-((R)-4-((R)-6-chloro-2-(3-(dimethylamino)azetidin-1-yl)-8-fluoro-7-(2-fluoro-6-hydroxyphenyl)quinazolin-4-yl)-2-methyl-piperazin-1-yl) prop-2-en-1-one], the Binding % result is “+ (+ indicates binding activity up to 50%)”.

Regarding `C=CC(=O)N1[C@H](C)CN(c2nc(OC3CCN(C4CC4)CC3)nc3c(F)c(-c4c(C)ccc5[nH]ncc45)c(Cl)cc23)C[C@@H]1C` [Compound 37, 1-((2S,6R)-4-(6-chloro-2-((1-cyclopropyl-piperidin-4-yl)oxy)-8-fluoro-7-(5-methyl-1H-indazol-4-yl)quinazolin-4-yl)-2,6-dimethyl-piperazin-1-yl) prop-2-en-1-one], the Binding % entry is “++ (++ indicates binding activity from 50 to 90%)”.

As to `C=CC(=O)N1CCN(c2nc(N3CC(N(C)C)C3)nc3c(F)c(-c4c(C)ccc5cn[nH]c45)c(Cl)cc23)C[C@H]1C` (atropisomer, axis not shown) [Compound 71, 1-((R)-4-((S)-6-chloro-2-(3-(dimethylamino)azetidin-1-yl)-8-fluoro-7-(6-methyl-1H-indazol-7-yl)quinazolin-4-yl)-2-methyl-piperazin-1-yl) prop-2-en-1-one], the Binding % result is “+ (+ indicates binding activity up to 50%)”.

As for `C=CC(=O)N1CCN(c2nc(N3CC(N(C)C)C3)nc3c(F)c(-c4c(C)ccc5cn[nH]c45)c(Cl)cc23)C[C@H]1C` (atropisomer, axis not shown) [Compound 70, 1-((R)-4-((R)-6-chloro-2-(3-(dimethylamino)azetidin-1-yl)-8-fluoro-7-(6-methyl-1H-indazol-7-yl)quinazolin-4-yl)-2-methyl-piperazin-1-yl) prop-2-en-1-one], the Binding % result is given as “+++ (+++ indicates binding activity greater than 90%)”. On to `C=CC(=O)N1CCN(c2nc(N)nc3c(F)c(-c4c(C)ccc5[nH]ncc45)c(Cl)cc23)[C@@H](C)C1` [Compound 10, 1-((3S)-4-(2-amino-6-chloro-8-fluoro-7-(5-methyl-1H-indazol-4-yl)quinazolin-4-yl)-3-methyl-piperazin-1-yl) prop-2-en-1-one], for which the Binding % entry is reported as “+++ (+++ indicates binding activity greater than 90%)”.

On to `C=CC(=O)N1C[C@H](C)N(c2nc(N3CC(N(C)C)C3)nc3c(F)c(-c4c(C)ccc5[nH]ncc45)c(Cl)cc23)C[C@H]1C` [Compound 54, 1-((2R,5S)-4-(6-chloro-2-(3-(dimethylamino)azetidin-1-yl)-8-fluoro-7-(5-methyl-1H-indazol-4-yl)quinazolin-4-yl)-2,5-dimethyl-piperazin-1-yl) prop-2-en-1-one], for which the Binding % entry is given as “+++ (+++ indicates binding activity greater than 90%)”. As for `C=CC(=O)N1[C@H](C)CN(c2nc(N3CC(N(C)C)C3)nc3c(F)c(-c4c(O)cccc4F)c(Cl)cc23)C[C@@H]1C` [Compound 68, 1-((2R,6S)-4-((R)-6-chloro-2-(3-(dimethylamino)azetidin-1-yl)-8-fluoro-7-(2-fluoro-6-hydroxyphenyl)quinazolin-4-yl)-2,6-dimethyl-piperazin-1-yl) prop-2-en-1-one], the Binding % entry is “+++ (+++ indicates binding activity greater than 90%)”.

Still in this test, the particulars now being: covalent binding to KRAS G12C after a three minute incubation period.
For the compound “1-((2R,5S)-4-(6- chloro-2-(2- (diethylamino) ethoxy)-8-fluoro- 7-((S)-6-methyl- 1H-indazol-7-yl) quinazolin-4-yl)- 2,5-dimethyl- piperazin-1-yl) prop-2-en-1-one [Compound 157]”, the Binding % result is “+ (+ indicates binding activity greater than 0% and up to 50%)”. Still for that read-out and setting: next, `C=CC(=O)N1C[C@H](C)N(c2nc(N3CC(N(C)C4CCC4)C3)nc3c(F)c(-c4c(C)ccc5cn[nH]c45)c(Cl)cc23)C[C@H]1C` [Compound 144, 1-((2R,5S)-4-(6-chloro-2-(3-(cyclobutyl (methyl)amino)azetidin-1-yl)-8-fluoro-7-(6-methyl-1H-indazol-7-yl)quinazolin-4-yl)-2,5-dimethyl-piperazin-1-yl) prop-2-en-1-one]: “+++ (+++ indicates binding activity greater than 90%)”; `C=CC(=O)N1C[C@H](C)N(c2nc(N3CC(N(CC)CC)C3)nc3c(F)c(-c4c(O)cccc4F)c(Cl)cc23)C[C@H]1C` (atropisomer, axis not shown) [Compound 175, 1-((2R,5S)-4-(6-chloro-2-(3-(diethylamino)azetidin-1-yl)-8-fluoro-7-((S)-2-fluoro-6-hydroxyphenyl)quinazolin-4-yl)-2,5-dimethyl-piperazin-1-yl) prop-2-en-1-one]: “+++ (+++ indicates binding activity greater than 90%)”.

For the compound `[2H]C([2H])([2H])N(C1CN(c2nc(N3C[C@@H](C)N(C(=O)C=C)C[C@@H]3C)c3cc(Cl)c(-c4c(C)ccc5[nH]ncc45)c(F)c3n2)C1)C([2H])([2H])[2H]` (atropisomer, axis not shown) [Compound 226, 1-((2R,5S)-4-(6-chloro-2-(3-(bis(triduetero-methyl)amino)azetidin-1-yl)-8-fluoro-7-((R)-5-methyl-1H-indazol-4-yl)quinazolin-4-yl)-2,5-dimethyl-piperazin-1-yl) prop-2-en-1-one], the Binding % entry is “+++ (+++ indicates binding activity greater than 90%)”. On to `C=CC(=O)N1C[C@H](C)N(c2nc(Oc3ccnn3C)nc3c(F)c(-c4c(O)cccc4F)c(Cl)cc23)C[C@H]1C` [Compound 208, 1-((2R,5S)-4-(6-chloro-8-fluoro-7-(2-fluoro-6-hydroxyphenyl)-2-((1-methyl-1H-pyrazol-5-yl)oxy)quinazolin-4-yl)-2,5-dimethyl-piperazin-1-yl) prop-2-en-1-one], for which the Binding % result is on record as “+++ (+++ indicates binding activity greater than 90%)”.

On to `C=CC(=O)N1C[C@H](C)N(c2nc(N3CC(N(C)CC)C3)nc3c(F)c(-c4c(O)cccc4F)c(Cl)cc23)C[C@H]1C` [Compound 102, 1-((2R,5S)-4-(6-chloro-2-(3-(ethyl(methyl)amino)azetidin-1-yl)-8-fluoro-7-(2-fluoro-6-hydroxyphenyl)quinazolin-4-yl)-2,5-dimethyl-piperazin-1-yl) prop-2-en-1-one], for which the Binding % result was “++ (++ indicates binding activity from 50 to 90%)”. The same measure, in the same setting: the entry for `C=CC(=O)N1C[C@@H](C)N(c2nc(N3CC(N(C)C)C3)nc3c(F)c(-c4c(O)cccc4F)c(Cl)cc23)C[C@@H]1C` [Compound 87, 1-((2S,5R)-4-(6-chloro-2-(3-(dimethylamino)azetidin-1-yl)-8-fluoro-7-(2-fluoro-6-hydroxyphenyl)quinazolin-4-yl)-2,5-dimethyl-piperazin-1-yl) prop-2-en-1-one] is “+ (+ indicates binding activity greater than 0% and up to 50%)”; for `C=CC(=O)N1C[C@H](C)N(c2nc(N3CC(N(C)C(C)C)C3)nc3c(F)c(-c4c(C)ccc5cn[nH]c45)c(Cl)cc23)C[C@H]1C` [Compound 122, 1-((2R,5S)-4-(6-chloro-8-fluoro-2-(3-(isopropyl (methyl)amino)azetidin-1-yl)-7-(6-methyl-1H-indazol-7-yl)quinazolin-4-yl)-2,5-dimethyl-piperazin-1-yl) prop-2-en-1-one] it is “++ (++ indicates binding activity from 50 to 90%)”; for `C=CC(=O)N1C[C@H](C)N(c2nc(N3CC4(CCCN4C)C3)nc3c(F)c(-c4c(C)ccc5[nH]ncc45)c(Cl)cc23)C[C@H]1C` [Compound 186, 1-((2R,5S)-4-(6-chloro-8-fluoro-7-(5-methyl-1H-indazol-4-yl)-2-(5-methyl-2,5-diazaspiro[3.4]octan-2-yl)quinazolin-4-yl)-2,5-dimethyl-piperazin-1-yl) prop-2-en-1-one] it is “++ (++ indicates binding activity from 50 to 90%)”. For the compound `C=CC(=O)N1C[C@H](C)N(c2nc(OCCN3CC(F)(F)C3)nc3c(F)c(-c4c(C)ccc5cn[nH]c45)c(Cl)cc23)C[C@H]1C` (atropisomer, axis not shown) [Compound 128, 1-((2R,5S)-4-(6-chloro-2-(2-(3,3-difluoroazetidin-1-yl)ethoxy)-8-fluoro-7-((S)-6-methyl-1H-indazol-7-yl)quinazolin-4-yl)-2,5-dimethyl-piperazin-1-yl) prop-2-en-1-one], the Binding % result is “+ (+ indicates binding activity greater than 0% and up to 50%)”.

Turning to `C=CC(=O)N1C[C@H](C)N(c2nc(N3CC(N(C)CC)C3)nc3c(F)c(-c4c(C)ccc5[nH]ncc45)c(Cl)cc23)C[C@H]1C` [Compound 119, 1-((2R,5S)-4-(6-chloro-2-(3-(ethyl(methyl)amino)azetidin-1-yl)-8-fluoro-7-(5-methyl-1H-indazol-4-yl)quinazolin-4-yl)-2,5-dimethyl-piperazin-1-yl) prop-2-en-1-one], the Binding % result was “+ (+ indicates binding activity greater than 0% and up to 50%)”. As to `C=CC(=O)N1C[C@H](C)N(c2nc(OCCCN(C)C)nc3c(F)c(-c4c(O)cccc4F)c(Cl)cc23)C[C@H]1C` [Compound 172, 1-((2R,5S)-4-(6-chloro-2-(3-(dimethylamino)propoxy)-8-fluoro-7-(2-fluoro-6-hydroxyphenyl)quinazolin-4-yl)-2,5-dimethyl-piperazin-1-yl) prop-2-en-1-one], the Binding % result is “+++ (+++ indicates binding activity greater than 90%)”.
